Patent US20110300570A1, “METHOD AND SYSTEM FOR GENERATING SPATIALLY AND TEMPORALLY CONTROLLABLE CONCENTRATION GRADIENTS” (THE BRIGHAM AND WOMEN'S HOSPITAL, INC., priority 2008, published 2011)

Columns and labels:
HL-1 cells [1] = assay: Cytotoxicity testing of a stabilized toxin concentration gradient on HL-1 cells in the microfluidic channel; format: cell-based
Method: HL-1 cells (Cardiac muscle cell line) were cultured with medium containing 87% Claycomb Medium, 10% Fetal Bovine Serum (FBS), 1% Penicillin/Streptomycin, 1% Norepinephrine, and 1% L-Glutamine at 37° C. in a humidified 5% CO2/95% air incubator. To enhance the cell adhesion, the bottom glass slide was coated with a mixture of extracellular matrix (0.02% gelatin (w/w) and 5 μg/mL fibronectin) after the top channel was bonded to the bottom glass slide. To seed the cells into the microfluidic device, the cells were trypsinized and seeded through the outlet port using dynamic seeding at a cell density of 2×10^6 cells mL-1 that allowed uniform cell distribution. Cells were cultured for 2 h to ensure attachment. The medium was then changed and 3 drops of 2 μL medium containing 20 mM Alpha-cypermethrin were introduced by passive pumping and a concentration gradient was established by leaving the microfluidic device in the hood for 5 min to allow for evaporation-induced backflow. The microfluidic device was then transferred to a humidified incubator where the concentration gradient of the toxin was stabilized and the cells were treated for 4 h. […] ImageJ was used to quantify the fluorescence images of live-dead staining of the cells. At least three images were used for quantification of the cell viability. […]

HL-1 cells [2] = assay: Cytotoxicity testing with HL-1 cells seeded in a 96-well plate; format: cell-based; conditions: HL-1 cells in 96-well plate, various concentrations of toxin
Method: In this example, the stabilized, spatially and temporally controllable concentration gradient technique is utilized for cytotoxicity testing. A cardiac muscle cell line (HL-1) is used to investigate the cytotoxicity of Alpha-cypermethrin, a cardiac toxin. Three drops of 2 μL medium containing 20 mM Alpha-cypermethrin were loaded consecutively into the micro-devices with HL-1 cells seeded along the channel. […] The cytotoxicity of the toxin gradient was further tested on the HL-1 cells by conducting a live-dead assay. […] According to the correlation between cell viability and morphology changes with respect to Alpha-cypermethrin concentration obtained from the toxicity testing on HL-1 cells seeded in 96-well plates, the experimental conditions used in this example established a concentration gradient of the toxin from 12.5 mM to 0 mM along the 5 cm-length channel based on the assay conducted in this example.

CC1(C)C(C=C(Cl)Cl)C1C(=O)OC(C#N)c1cccc(Oc2ccccc2)c1 (stereo not drawn) [Alpha-cypermethrin]
cell morphology along the channel (HL-1 cells [1]; HL-1 cells exposed 4 h to toxin gradient (loaded 20 mM; gradient 12.5 mM to 0 mM along 5 cm channel)): more severe effects observed in the regions containing higher concentrations of toxin | cell viability (live-dead assay) (HL-1 cells [1]; HL-1 cells exposed 4 h to toxin gradient along the channel): correlation of cell viability was found with the toxin concentration gradient | cell morphology (HL-1 cells [2]): drastic morphological change
